Columns and labels:
HCMV [1] = assay: HCMV IE1 / viral gene expression, western blot of infected cells; format: cell-based, Human cytomegalovirus; details: for HCMV IE1 gene expression: IMC-3G3 10 μg/ml 12 h or Gleevec 100 nM 1 h pre-treatment, western blot
Protocol: (A) pp65 immunofluorescence after HCMV treatment (1 h, 4° C.) followed by shifting to 37° C. for indicated times. Rows represent (top to bottom): HEL, PDGFRα null fibroblasts, parental fibroblasts, null fibroblasts overexpressing hPDGFRα, HEL transfected with control, or PDGFRα siRNA. Nuclei were stained with DAPI. (B) Average±S.D. pp65 positive/100 cells counted in triplicate from (A). (C) Mock or HCMV infected cells were analyzed by western blotting with the indicated antibodies. Lanes 1-4 indicate HEL, 325S, PDGFRα null and PDGFRα null over-expressing hPDGFRα, respectively. (D) HEL transfected with control or PDGFRα siRNA were mock (lanes 1) or HCMV-treated (lanes 2) and subjected to western blots with indicated antibodies. (E) Western blot of HEL and U87 lysates after infection with mock (lanes 1), HCMV (lanes 2), or HCMV pretreated with IMC-3G3 (10 μg/ml, 12 h, lanes 3) or Gleevec (100 nM, 1 h, lanes 4). (F) PDGFRα siRNA treated cells infected with indicated HCMV strains and immunostained for IE1 12 hpi (primary infection). 6 dpi, supernatants were used to infect naïve HEL cells, followed by IE1 immunostaining and quantification (secondary infection). Average (n=6) values±S.D. are shown.
HUVEC cells were pre-treated with IMC-3G3 (10 μg/ml, Imclone, 12 h), or Gleevec (100 nM, 1 h) prior to HCMV or mock infection. 12 hours post-infection, cell lysates were analyzed by western blot for the presence of IE1 gene product. […] The same blot was stripped and re-probed for actin (lower panel). Lane designation is 1—Mock, 2—HCMV, 3—IMC-3G3+HCMV, 4—Gleevec+HCMV.
Upper panel: HEL cells pretreated with anti-human PDGFRα antibody (10 ng/ml, for 30 min, clone AF-307-NA from R&D; lanes 1 and 3) or with AG 1295 (lane 4, […], from Calbiochem) were stimulated with Towne HCMV (lanes 2 through 4) or Mock infected (lane 1) for 10 min at 37 C. Cells were washed and further incubated for 2 h at 37 C (to allow expression of IE1 gene product). Afterwards, cells were harvested in RIPA buffer and processed for western blotting as described.
Western Blot, Immunoprecipitation, and Immunofluorescence analyses. For stimulation experiments, cells were serum-starved for 24 h, followed by stimulation with HCMV (MOI of 0.5), PDGF-AA (5-10 ng/ml, from R&D Systems), or mock, for 10 minutes. In some cases, cells were pre-treated with IMC-3G3 (ImClone Inc.) at 10 µg/ml (2 or 12 h) or Gleevec® (100 nM, 1 h) prior to HCMV exposure. Cell lysates were analyzed by SDS-PAGE. Antibodies used were as follows: polyclonal anti-PDGFRα ( 1/500), phosphor-Tyrosine clone 4G10 ( 1/1000), and monoclonal anti-p85 PI3-K ( 1/1000), (Upstate Biotechnology), anti HCMV IE1 MAB810 (Chemicon; 1/1000), anti HCMV pp65 (Novocastra, 1/1000), anti-phosphor-PDGFRα ( 1/500, pTyr 754), anti-phosphor-Akt (Ser 473, 1/1000) and total Akt ( 1/1000; all from Cell Signaling). Anti-actin polyclonal control antibody was used ( 1/500, Sigma). Immunoprecipitations were performed using protein G (Pierce) according to manufacturer's instructions. For immunofluorescence, monoclonal HCMV pp65 and phosphor-PDGFRα (p-Tyr 754, Santa Cruz Biotechnology) were used, overnight at 4° C., followed by 1 hour incubation with secondary antibodies conjugated to Alexa-488, or Alexa 568 ( 1/5,000, Molecular Probes). Nuclei were counterstained with DAPI. Co-immunoprecipitation experiments were performed using full length soluble purified recombinant gB (gB 680, from Don Diamond, City of Hope, Calif.) and detergent soluble extract of HEL cells generated in lysis buffer (1% NP-40, 75 mM NaCl and 50 mM Tris-HCl). 500 μg of protein from total cell extract was incubated with 25 μg of gB 680 in lysis buffer in the presence of an anti-gB (Virusys, Inc) or anti-PDGFRα (R&D) antibody overnight at 4° C. Immune complexes were recovered with protein A-Sepharose beads (2 hr incubation), denatured and separated on SDS-PAGE for western blot with anti-gB (Virusys, Inc) or anti-PDGFRα (Cell Signaling Technology) antibodies.

HCMV [2] = assay: Viral attachment and internalization assay (pp65 immunofluorescence); format: cell-based, Human cytomegalovirus
Protocol: (A) HEL cells were pretreated with PBS (20 min 4° C.), IMC-3G3 (2 h, 37° C., 10 μg/ml), or PDGF-AA (20 min, 4° C., 10 ng/ml) prior to infection with HCMV (MOI of 1, 4° C., 1 h). Cells were returned to 37° C. for 30 minutes, and processed for pp65^HCMV and PDGFRα double immunofluorescence. […] All conditions were assayed in triplicate cultures. One hundred cells in 4 low magnification fields were counted. Bars represent SD.
Viral Attachment and Internalization Assays. Mouse fibroblasts and HEL cells (72 hours following siRNA transfections) were incubated with HCMV (MOI of 0.5) or mock treated for 1 hour at 4° C., after which cells were returned to 37° C. for 15, 30, or 60 min. Cells were fixed using methanol (20 min) and processed for pp65 immunofluorescence. Four low power fields were counted for each condition and pp65 positive were recorded for each 100 cells. Internalization assays were repeated twice.

PI3-K/Akt signaling = format: cell-based, human; details: HEL; 10 min stimulation; IMC-3G3 2 μg/ml or Gleevec 100 nM; p-Akt Ser 473
Protocol: (A) HEL cells stimulated with HCMV or PDGF-AA were subjected to immunoprecipitation and western blot analyses with indicated antibodies. (B) Phospho-PDGFRα ELISA of cells+/−pretreatment with IMC-3G3 (10 μg/ml, 2 h) followed by HCMV (MOI=1) or PDGF (10 ng/ml) for 10 min. Mean values (n=6)±S.D are shown. (C) Western blot of HEL mock, HCMV, or PDGF-AA stimulated (10 min), +/−IMC-3G3 (2 μg/ml) or Gleevec® (Imatinib) (100 nM). The same membrane was used for p-Akt^Ser 473 and Akt.
HEL cells pretreated with blocking reagents (as indicated; 30 min, 37 C) were stimulated for 10 min with HCMV, PDGF-AA (5 ng/ml), or mock-treated. Cell lysates were collected in RIPA buffer (supplemented with protease and phosphatase inhibitors) and subjected to Western blot analysis.
For stimulation experiments, cells were serum-starved for 24 h, followed by stimulation with HCMV (MOI of 0.5), PDGF-AA (5-10 ng/ml, from R&D Systems), or mock, for 10 minutes. In some cases, cells were pre-treated with IMC-3G3 (ImClone Inc.) at 10 g/ml (2 or 12 h) or Gleevec® (100 nM, 1 h) prior to HCMV exposure. Cell lysates were analyzed by SDS-PAGE. Antibodies used were as follows: polyclonal anti-PDGFRα ( 1/500), phosphor-Tyrosine clone 4G10 ( 1/1000), and monoclonal anti-p85 PI3-K ( 1/1000), (Upstate Biotechnology), anti HCMV IE1 MAB810 (Chemicon; 1/1000), anti HCMV pp65 (Novocastra, 1/1000), anti-phosphor-PDGFRα ( 1/500, pTyr 754), anti-phosphor-Akt (Ser 473, 1/1000) and total Akt ( 1/1000; all from Cell Signaling). Anti-actin polyclonal control antibody was used ( 1/500, Sigma). Immunoprecipitations were performed using protein G (Pierce) according to manufacturer's instructions.

[3] = human epithelial, endothelial, and fibroblast cells

## IMC-3G3: humanized PDGFRα blocking antibody (ImClone Inc.)
HCMV [1]; HEL cells
  HCMV IE1 gene expression: completely inhibited
HCMV [1]; HUVEC, pre-treated with IMC-3G3 10 μg/ml 12 h or Gleevec 100 nM 1 h, western blot 12 hours post-infection
  HCMV IE1 expression: completely inhibited
HCMV [1]; U87 glioma cells
  HCMV IE1 gene expression: completely inhibited
HCMV [1]; [3]
  HCMV gene expression: completely inhibited
HCMV [2]; HEL cells, IMC-3G3 2 h, 37° C., 10 μg/ml, PDGF-AA 20 min, 4° C., 10 ng/ml, HCMV MOI of 1, 30 min at 37° C.
  inhibition of HCMV entry (pp65 positive cells): ~45%
HCMV [2]; [3]
  HCMV viral internalization: completely inhibited
PI3-K/Akt signaling
  Akt phosphorylation induced by either HCMV or PDGF-AA: abolished
